Data published in ChEMBL document CHEMBL1151324, “Cytotoxic geranyl stilbenes from Macaranga schweinfurthii” (J Nat Prod, 1998).
Converted amounts (≈) assume the structure as drawn.

Tests used:
SW-620 = assay: Cytotoxicity against human SW620 cells; assay type: functional
[1] = Cytotoxicity against human Hs 578T cells; assay type: functional
MDA-MB-435 = assay: Cytotoxicity against human MDA-MB-435 cells; assay type: functional
OVCAR-8 = assay: Cytotoxicity against human OVCAR8 cells; assay type: functional
CCRF-CEM = assay: Cytotoxicity against human CCRF-CEM cells; assay type: functional
A549 [2] = assay: Cytotoxicity against human A549 cells; assay type: functional
SK-MEL-2 = assay: Cytotoxicity against human SK-MEL-2 cells; assay type: functional
MCF7 = assay: Cytotoxicity against human MCF7 cells; assay type: functional
HCT-15 = assay: Cytotoxicity against human HCT15 cells; assay type: functional
SNB-19 = assay: Cytotoxicity against human SNB19 cells; assay type: functional
SK-OV-3 = assay: Cytotoxicity against human SKOV3 cells; assay type: functional
[3] = Cytotoxicity against human 786-O cells; assay type: functional
A549 [4] = assay: Cytotoxicity against human A549 cells after 1 hr compound washout; assay type: functional, cell-based; conditions: A549, 1 h
SF-295 [5] = assay: Cytotoxicity against human SF295 cells after 1 hr compound washout; assay type: functional, cell-based; conditions: SF-295, 1 h
HOP-92 = assay: Cytotoxicity against human HOP92 cells; assay type: functional
ACHN = assay: Cytotoxicity against human ACHN cells; assay type: functional
HCC 2998 = assay: Cytotoxicity against human HCC2998 cells; assay type: functional
UACC-62 = assay: Cytotoxicity against human UACC62 cells; assay type: functional
MOLT-4 = assay: Cytotoxicity against human MOLT4 cells; assay type: functional
COLO 205 = assay: Cytotoxicity against human COLO205 cells; assay type: functional
NCI-H522 = assay: Cytotoxicity against human NCI-H522 cells; assay type: functional
SF-295 [6] = assay: Cytotoxicity against human SF295 cells; assay type: functional
A498 = assay: Cytotoxicity against human A498 cells; assay type: functional
[7] = read-out: pLC50 (the source's name) (converted)

COc1cc(/C=C/c2cc(O)c(C/C=C(\C)CCC=C(C)C)c(O)c2)cc2c1O[C@]1(C)C[C@@H](O)[C@@H](O)C(C)(C)[C@H]1C2 [SCHWEINFURTHIN B]
GI50 (SW-620): 0.676 µM
LC50 (SW-620): 17 µM
TGI (SW-620; read-out: pTGI (converted)): 3.09 µM
GI50 [1]: 0.0199 µM
CC50 [1, 7]: > 100 µM
TGI ([1]; read-out: pTGI (converted)): 1.1 µM
GI50 (MDA-MB-435): 7.59 µM
CC50 (MDA-MB-435; [7]): 72.4 µM
TGI (MDA-MB-435; read-out: pTGI (converted)): 33.1 µM
GI50 (OVCAR-8): 11 µM
LC50 (OVCAR-8): 64.6 µM
TGI (OVCAR-8; read-out: pTGI (converted)): 26.9 µM
GI50 (CCRF-CEM): 0.229 µM
LC50 (CCRF-CEM): > 100 µM
TGI (CCRF-CEM; read-out: pTGI (converted)): 6.31 µM
GI50 (A549 [2]): 0.339 µM
LC50 (concentration killing 50% of cells) (A549 [2]): 38.9 µM
TGI (A549 [2]; read-out: pTGI (converted)): 14.1 µM
GI50 (SK-MEL-2): 1.82 µM
LC50 (SK-MEL-2): 46.8 µM
TGI (SK-MEL-2; read-out: pTGI (converted)): 17 µM
GI50 (MCF7): 0.2 µM
CC50 (MCF7; [7]): 38.9 µM
TGI (MCF7; read-out: pTGI (converted)): 6.03 µM
GI50 (HCT-15): 1.91 µM
LC50 (HCT-15): 33.9 µM
TGI (HCT-15; read-out: pTGI (converted)): 6.92 µM
GI50 (SNB-19): 0.398 µM
LC50 (SNB-19): 40.7 µM
TGI (SNB-19; read-out: pTGI (converted)): 15.8 µM
GI50 (SK-OV-3): 2.57 µM
LC50 (SK-OV-3): 40.7 µM
TGI (SK-OV-3; read-out: pTGI (converted)): 15.8 µM
GI50 ([3]; 786-0): 0.0219 µM
LC50 ([3]; 786-0): 14.1 µM
TGI ([3]; 786-0, read-out: pTGI (converted)): 1.91 µM
IC50 (A549 [4]): 80 µg/mL (≈ 142 µM)
IC50 (SF-295 [5]): 2.9 µg/mL (≈ 5.15 µM)
GI50 (HOP-92): 0.933 µM
LC50 (HOP-92): 41.7 µM
TGI (HOP-92; read-out: pTGI (converted)): 12.9 µM
GI50 (ACHN): 4.27 µM
LC50 (ACHN): 43.7 µM
TGI (ACHN; read-out: pTGI (converted)): 20 µM
GI50 (HCC 2998): 3.63 µM
LC50 (HCC 2998): 34.7 µM
TGI (HCC 2998; read-out: pTGI (converted)): 11 µM
GI50 (UACC-62): 0.331 µM
LC50 (UACC-62): 10 µM
TGI (UACC-62; read-out: pTGI (converted)): 2.29 µM
GI50 (MOLT-4): 0.0479 µM
LC50 (MOLT-4): 11 µM
TGI (MOLT-4; read-out: pTGI (converted)): 5.25 µM
GI50 (COLO 205): 0.617 µM
LC50 (COLO 205): 6.76 µM
TGI (COLO 205; read-out: pTGI (converted)): 2.4 µM
GI50 (NCI-H522): 3.02 µM
LC50 (NCI-H522): 39.8 µM
TGI (NCI-H522; read-out: pTGI (converted)): 17 µM
LC50 (SF-295 [6]): 3.89 µM
GI50 (SF-295 [6]; read-out: pGI50 (converted)): 0.024 µM
TGI (SF-295 [6]; read-out: pTGI (converted)): 0.288 µM
GI50 (A498): 1.7 µM
LC50 (A498): 44.7 µM
TGI (A498; read-out: pTGI (converted)): 17 µM
